Laboratory results taken from patent US10221161B2, “Inhibitors of plasma kallikrein” (Kalvista Pharmaceuticals Limited, priority 2013, dated 2019).

Assays:
Human plasma kallikrein = Human plasma kallikrein (Homo sapiens (Human), UniProt P03952); assay: Determination of the IC50 for plasma kallikrein (fluorogenic substrate H-DPro-Phe-Arg-AFC); format: biochemical; conditions: 37° C., read-out: IC50 (human PKal)
Protocol: Determination of the IC50 Plasma Kallikrein Plasma kallikrein inhibitory activity in vitro was determined using standard published methods (see e.g. Johansen et al., Int. J. Tiss. […] Shori et al., Biochem. Pharmacol., 1992, 43, 1209; Stürzebecher et al., Biol. Chem. Hoppe-Seyler, 1992, 373, 1025). Human plasma kallikrein (Protogen) was incubated at 37° C. with the fluorogenic substrate […] and various concentrations of the test compound.

Human KLK1 = Human KLK1 (Homo sapiens (Human), UniProt P06870); assay: Determination of the IC50 for KLK1 (fluorogenic substrate H-DVal-Leu-Arg-AFC); format: biochemical; conditions: human KLK1, 37° C.
Sequence of Human KLK1 (P06870 25-262): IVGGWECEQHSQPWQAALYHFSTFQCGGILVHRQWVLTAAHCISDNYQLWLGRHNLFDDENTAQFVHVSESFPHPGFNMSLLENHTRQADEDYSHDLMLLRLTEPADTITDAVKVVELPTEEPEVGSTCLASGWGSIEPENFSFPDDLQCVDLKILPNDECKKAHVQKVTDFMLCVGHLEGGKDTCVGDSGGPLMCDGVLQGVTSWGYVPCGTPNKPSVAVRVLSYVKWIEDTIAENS
Method in brief: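 Inhibition of human KLK1 (Callbiochem) was measured in vitro following standard published methods. The enzyme was incubated at 37° C. with the fluorogenic substrate H-DVal-Leu-Arg-AFC across a range of test compound concentrations. Residual activity, taken as the initial reaction rate, was followed by […], and IC50 values were calculated.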

Sequence of Human plasma kallikrein (P03952 391-638 limits assumed): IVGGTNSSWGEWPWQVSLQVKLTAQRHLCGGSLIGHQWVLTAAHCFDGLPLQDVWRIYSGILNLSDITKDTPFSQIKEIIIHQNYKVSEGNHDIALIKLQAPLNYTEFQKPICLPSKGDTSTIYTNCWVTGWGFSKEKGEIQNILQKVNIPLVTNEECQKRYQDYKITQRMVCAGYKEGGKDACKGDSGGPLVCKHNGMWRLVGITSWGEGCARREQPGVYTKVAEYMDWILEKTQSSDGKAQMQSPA
Sequence of Human plasma kallikrein (P03952 20-390 partner limits assumed): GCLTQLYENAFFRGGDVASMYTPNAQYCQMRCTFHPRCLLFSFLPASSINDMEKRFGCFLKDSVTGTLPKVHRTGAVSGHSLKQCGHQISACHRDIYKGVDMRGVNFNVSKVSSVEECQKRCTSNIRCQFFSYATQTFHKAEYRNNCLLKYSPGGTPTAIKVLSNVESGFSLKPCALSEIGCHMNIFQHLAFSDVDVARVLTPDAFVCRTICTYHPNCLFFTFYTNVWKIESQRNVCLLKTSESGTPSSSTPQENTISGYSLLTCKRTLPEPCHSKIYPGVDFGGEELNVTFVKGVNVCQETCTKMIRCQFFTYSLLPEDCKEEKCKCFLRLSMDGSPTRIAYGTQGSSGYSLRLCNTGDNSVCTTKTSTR

IC50 (Human plasma kallikrein) [nM] | IC50 (Human KLK1) [µM] | SMILES
30.8 | 5.34 | Cc1cnn(Cc2ccc(Cc3cncc(C(=O)NCc4ccc5c(N)nccc5c4)n3)cc2)c1 [Example 9, N-[(1-Aminoisoquinolin-6-yl)methyl]-6-({4-[(4-methylpyrazol-1-yl)methyl]phenyl}methyl)pyrazine-2-carboxamide]
621 | 2.49 | Cc1ccc2cc(Cc3cnc(O)c(C(=O)NCc4ccc5c(N)nccc5c4)c3)ccc2n1 [Example 20, N-[(1-Aminoisoquinolin-6-yl)methyl]-5-[(2-methylquinolin-6-yl)methyl]-2-oxo-1H-pyridine-3-carboxamide]
610 | 5.34 | CN1CCN(c2ccc(Cc3cncc(C(=O)NCc4ccc5c(N)nccc5c4)c3)cn2)CC1 [Example 64, N-[(1-Aminoisoquinolin-6-yl)methyl]-5-{[6-(4-methylpiperazin-1-yl)pyridin-3-yl]methyl}pyridine-3-carboxamide]
35.3 | 8.02 | Cc1cnn(Cc2ccc(C(O)c3cncc(C(=O)NCc4ccc5c(N)nccc5c4)c3)cc2)c1 (stereo not shown) [Example 7, N-((1-Aminoisoquinolin-6-yl)methyl)-5-(hydroxy(4-((4-methyl-1H-pyrazol-1-yl)methyl)phenyl)methyl)nicotinamide]
179 | 2.06 | Cc1ccc2cc(Cn3cc(C(=O)NCc4ccc5c(N)nccc5c4)ccc3=O)ccc2n1 [Example 16, N-[(1-Aminoisoquinolin-6-yl)methyl]-1-[(2-methylquinolin-6-yl)methyl]-6-oxopyridine-3-carboxamide]
10000 | > 10 | Nc1nccc2cc(CNC(=O)c3cncc(CN4CCN(CCCc5ccccc5)CC4)c3)ccc12 [Example 50, N-[(1-Aminoisoquinolin-6-yl)methyl]-5-{[4-(3-phenylpropyl)piperazin-1-yl]methyl}pyridine-3-carboxamide]
3510 | 29.8 | Nc1nccc2cc(CNC(=O)c3cncc(CN4CCN(S(=O)(=O)c5ccccc5)CC4)c3)ccc12 [Example 35, N-[(1-Aminoisoquinolin-6-yl)methyl]-5-{[4-(benzenesulfonyl)piperazin-1-yl]methyl}pyridine-3-carboxamide]
860 | 3.62 | CCOC(=O)C1CCN(c2ccc(Cc3cncc(C(=O)NCc4ccc5c(N)nccc5c4)c3)cn2)C1 (stereo not shown) [Example 72, Ethyl 1-{5-[(5-{[(1-aminoisoquinolin-6-yl)methyl]carbamoyl}pyridin-3-yl)methyl]pyridin-2-yl}pyrrolidine-3-carboxylate]

Continued, molecule first:

SMILES | IC50 (Human plasma kallikrein) [nM] | IC50 (Human KLK1) [µM]
Cc1cnn(Cc2ccc(Cc3ccnc(C(=O)NCc4ccc5c(N)nccc5c4)c3)cc2)c1 [Example 3, N-[(1-Aminoisoquinolin-6-yl)methyl]-4-({4-[(4-methylpyrazol-1-yl)methyl]phenyl}methyl)pyridine-2-carboxamide] | 159 | > 40
Nc1nccc2cc(CNC(=O)c3cncc(Cc4ccc(N5CCC(F)C5)nc4)c3)ccc12 (stereo not shown) [Example 60, N-[(1-Aminoisoquinolin-6-yl)methyl]-5-{[6-(3-fluoropyrrolidin-1-yl)pyridin-3-yl]methyl}pyridine-3-carboxamide] | 137 | 8.69
COc1ccc(CN2CCN(Cc3cncc(C(=O)NCc4ccc5c(N)nccc5c4)c3)CC2)cc1 [Example 45, N-[(1-Aminoisoquinolin-6-yl)methyl]-5-({4-[(4-methoxyphenyl)methyl]piperazin-1-yl}methyl)pyridine-3-carboxamide] | 33600 | 26.9
Cc1cnn(CCOCc2cncc(C(=O)NCc3ccc4c(N)nccc4c3)c2)c1 [Example 40, N-[(1-Aminoisoquinolin-6-yl)methyl]-5-{[2-(4-methylpyrazol-1-yl)ethoxy]methyl}pyridine-3-carboxamide] | 127 | 4.87
Nc1nccc2cc(CNC(=O)c3cncc(Cc4ccc(N5CCCC5CO)nc4)c3)ccc12 (stereo not shown) [Example 67, N-[(1-Aminoisoquinolin-6-yl)methyl]-5-({6-[2-(hydroxymethyl)pyrrolidin-1-yl]pyridin-3-yl}methyl)pyridine-3-carboxamide] | 73.3 | 5.15
CN(C)[C@H]1CCN(c2ccc(Cc3cncc(C(=O)NCc4ccc5c(N)nccc5c4)c3)cn2)C1 (stereo in doubt) [Example 68, N-[(1-Aminoisoquinolin-6-yl)methyl]-5-({6-[3-(dimethylamino)pyrrolidin-1-yl]pyridin-3-yl}methyl)pyridine-3-carboxamide] | 375 | 3.51
Nc1nccc2cc(CNC(=O)c3cncc(CN4CCN(C(=O)c5ccccc5)CC4)c3)ccc12 [Example 36, N-[(1-Aminoisoquinolin-6-yl)methyl]-5-[(4-benzoylpiperazin-1-yl)methyl]pyridine-3-carboxamide] | 6650 | 23.8
COc1cc(Cc2cncc(C(=O)NCc3ccc4c(N)nccc4c3)c2)ccc1Cn1cc(C)cn1 [Example 33, N-[(1-Aminoisoquinolin-6-yl)methyl]-5-({3-methoxy-4-[(4-methylpyrazol-1-yl)methyl]phenyl}methyl)pyridine-3-carboxamide] | 17.1 | 17.1
Nc1nccc2cc(CNC(=O)c3ccc(=O)n(Cc4csc(-c5ccccc5)n4)c3)ccc12 [Example 14, N-[(1-Aminoisoquinolin-6-yl)methyl]-6-oxo-1-[(2-phenyl-1,3-thiazol-4-yl)methyl]pyridine-3-carboxamide] | 2670 | 4.16
Cc1cnn(Cc2ccc(Cc3cncc(C(=O)NCc4ccc(CN)cc4C)c3)cc2)c1 [Example 93, N-{[4-(Aminomethyl)-2-methylphenyl]methyl}-5-({4-[(4-methylpyrazol-1-yl)methyl]phenyl}methyl)pyridine-3-carboxamide] | 14.4 | > 40
Cc1cnn(Cc2ccc(Cc3cncc(C(=O)NCc4c(C)cc(CN)cc4C)n3)cc2)c1 [Example 95, N-{[4-(Aminomethyl)-2,6-dimethylphenyl]methyl}-6-({4-[(4-methylpyrazol-1-yl)methyl]phenyl}methyl)pyrazine-2-carboxamide] | 53.6 | > 40
Nc1nccc2cc(CNC(=O)c3cncc(Cc4ccc(N5CCCCC5)nc4)c3)ccc12 [Example 56, N-[(1-Aminoisoquinolin-6-yl)methyl]-5-{[6-(piperidin-1-yl)pyridin-3-yl]methyl}pyridine-3-carboxamide] | 313 | > 40
Nc1nccc2cc(CNC(=O)c3cncc(Cc4ccc5ncccc5c4)c3)ccc12 [Example 31, N-[(1-Aminoisoquinolin-6-yl)methyl]-5-(quinolin-6-ylmethyl)pyridine-3-carboxamide] | 144 | 4.13
Cc1ccc2cc(Cc3cnc(C)c(C(=O)NCc4ccc5c(N)nccc5c4)c3)ccc2n1 [Example 22, N-[(1-Aminoisoquinolin-6-yl)methyl]-2-methyl-5-[(2-methylquinolin-6-yl)methyl]pyridine-3-carboxamide] | 104 | 0.484
Cc1cnn(Cc2ccc(Cc3cnnc(C(=O)NCc4ccc5c(N)nccc5c4)c3)cc2)c1 [Example 11, N-[(1-Aminoisoquinolin-6-yl)methyl]-5-({4-[(4-methylpyrazol-1-yl)methyl]phenyl}methyl)pyridazine-3-carboxamide] | 82.3 | 37.1
CN(C)[C@@H]1CCN(c2ccc(Cc3cncc(C(=O)NCc4ccc5c(N)nccc5c4)c3)cn2)C1 (stereo in doubt) [Example 69, N-[(1-Aminoisoquinolin-6-yl)methyl]-5-({6-[3-(dimethylamino)pyrrolidin-1-yl]pyridin-3-yl}methyl)pyridine-3-carboxamide] | 579 | 2.43
CN1CCOc2cc(Cc3cncc(C(=O)NCc4ccc5c(N)nccc5c4)c3)ccc21 [Example 38, N-[(1-Aminoisoquinolin-6-yl)methyl]-5-[(4-methyl-2,3-dihydro-1,4-benzoxazin-7-yl)methyl]pyridine-3-carboxamide] | 107 | 8.6
Nc1nccc2cc(CNC(=O)c3cncc(Cc4ccc(N5CCC(C(=O)O)C5)nc4)c3)ccc12 (stereo not shown) [Example 75, 1-{5-[(5-{[(1-Aminoisoquinolin-6-yl)methyl]carbamoyl}pyridin-3-yl)methyl]pyridin-2-yl}pyrrolidine-3-carboxylic acid] | 6120 | > 10
